Measurements reported in patent US9790173B2, “Alpha-7 nicotinic acetylcholine receptor modulators and uses thereof-I” (MERCK SHARP & DOHME CORP., priority 2012, dated 2017).

Key:
[1] = target: T1, rat α7 nAChRs (Rattus norvegicus, UniProt Q05941); test: Automated planar patch clamp (Patchliner) electrophysiology, α7 nAChR PAM activity; format: cell-based; parameters: key to Type I or Type II: I: Type 1 predominately affects the peak current; Type II modulators affect the peak current and also delay the desensitization of the receptor; conditions: for Type I or Type II: modulator type based on the electrophysiology trace; for activation at 3 µM: GH4-C1, 3 μM compound in the presence of acetylcholine, GH4C1 cells expressing rat α7 nAChRs, peak current, read-out: Peak potentiation at 3 μM compound
T1 construct: expressed in transfected cells; host or cells: GH4C1 cells (rat pituitary line) stably expressing α7 nAChR
Method: Tested compounds were prepared by serial dilutions of 10 mM stock solution in DMSO to concentrations of the compound 1000 times higher than its final concentration. The DMSO stock solutions were then diluted 1:100 in the recording buffer bringing DMSO concentration to 1%. These intermediate solutions were further diluted 10 times with buffer to obtain final concentrations and lower DMSO concentration to 0.1%. […]
Compounds of the invention may be evaluated by electrophysiology using a Patchliner® (Nanion Technologies GmbH, Germany), an automated planar patch-clamp platform of medium throughput was used as a first step in electrophysiological assessment of α7 nAChR positive allosteric modulators (PAMs).
Briefly, intracellular (KCl—50 mM, NaCl—10 mM, KF—60 mM, EGTA—20 mM, HEPES—10 mM, pH—7.2, 285 mOsmol) and extracellular (NaCl—140 mM, KCl—4 mM, CaCl2—2 mM, MgCl2—1 mM, HEPES—10 mM, D-Glucose—5 mM, pH—7.4, 298 mOsmol) solutions were automatically pipetted onto NPC-16 chip (medium resistance ˜2.5-2.6 MΩ). Suspension of GH4C1 cells expressing rat α7 nAChRs was introduced in 4 wells of a medium resistance chip and suction was applied to attract cells in the holes. The extracellular solution was subsequently exchanged to high calcium solution (NaCl—80 mM, KCl—3 mM, CaCl2—45 mM, HEPES—10 mM, pH—7.4, 298 mOsmol) followed by gigaohm seal formation and obtaining whole-cell configuration. The rest of protocol was carried out in the high-calcium recording solution. Holding potential was −70 mV throughout the protocol. A control response to 60 or 100 μM of ACh was obtained first. Next, a cell was pre-incubated with compound of interest at 3 μM for ˜30 s after which the compound was co-applied with acetylcholine.
Amplitude of the responses was measured in HEKA Patchmaster software (HEKA Elektronik, Germany) and percentage of potentiation calculated. Recording was repeated […] a minimum of two replicates had been obtained per compound.
Compounds shown in Table 1 were evaluated by automated planar patch clamp on the Patchliner® as described in Example P2.1. […] The compounds are designated either as Type I or Type II modulators based on the electrophysiology trace. Type 1 predominately affects the peak current. Type II modulators affect the peak current and also delay the desensitization of the receptor.

T1 sequence (Q05941 23-502): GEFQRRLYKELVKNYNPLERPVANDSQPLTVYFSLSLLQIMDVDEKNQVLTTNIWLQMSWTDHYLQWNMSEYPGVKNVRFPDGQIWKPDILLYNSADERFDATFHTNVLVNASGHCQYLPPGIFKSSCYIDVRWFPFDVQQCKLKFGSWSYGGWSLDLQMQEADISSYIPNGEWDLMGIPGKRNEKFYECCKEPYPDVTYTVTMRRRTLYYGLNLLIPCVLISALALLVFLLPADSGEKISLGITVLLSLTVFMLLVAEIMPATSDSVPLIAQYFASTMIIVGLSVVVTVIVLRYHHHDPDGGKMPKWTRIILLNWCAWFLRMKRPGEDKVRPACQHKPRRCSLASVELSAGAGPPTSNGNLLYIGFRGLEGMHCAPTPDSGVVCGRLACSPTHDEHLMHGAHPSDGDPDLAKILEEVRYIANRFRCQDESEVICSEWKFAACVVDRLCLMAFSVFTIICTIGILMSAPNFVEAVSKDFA

| SMILES | melting point [°C] | Type I or Type II [1] | activation at 3 µM [1] [%] |
| --- | --- | --- | --- |
| COc1ccc(NC[C@@H]2[C@@H](c3ccc(S(N)(=O)=O)cc3)C23CCCC3)c(OC)n1 [Example 9, ±trans 4-(2-{[(2,6-dimethoxypyridin-3-yl)amino]methyl}spiro[2.4]hept-1-yl)benzenesulfonamide] | 56 to 58 | II | – |
| CC1(C)[C@H](CNc2cccc(N3CCOCC3)c2)[C@H]1c1ccc(S(N)(=O)=O)cc1 [Example 26, ±trans 4-[2,2-dimethyl-3-({[3-(morpholin-4-yl)phenyl]amino}methyl)cyclopropyl]benzenesulfonamide] | – | II | 455 |
| Cc1ccc(F)cc1NC[C@@H]1[C@@H](c2ccc(S(N)(=O)=O)cc2)C1(C)C [Example 29, 4-[(1R,3R)-3-{[(5-fluoro-2-methylphenyl)amino]methyl}-2,2-dimethylcyclopropyl]benzenesulfonamide] | – | I | 456 |
| Cc1ccc(F)cc1NC[C@H]1[C@H](c2ccc(S(N)(=O)=O)cc2)C1(C)C [Example 31, 4-[(1S,3S)-3-{[(5-fluoro-2-methylphenyl)amino]methyl}-2,2-dimethylcyclopropyl]benzenesulfonamide] | – | II | – |
| Cc1cc(F)c(F)cc1NC[C@H]1[C@H](c2ccc(S(N)(=O)=O)cc2)C1(C)C [Example 32, 4-[(1S,3S)-3-{[(4,5-difluoro-2-methylphenyl)amino]methyl}-2,2-dimethylcyclopropyl]benzenesulfonamide] | – | II | – |
| Cc1ncccc1NC[C@@H]1[C@@H](c2ccc(S(N)(=O)=O)cc2)C1(C)C [Example 36, ±trans 4-[2,2-dimethyl-3-{[(2-methylpyridin-3-yl)amino]methyl}cyclopropyl]benzenesulfonamide] | 174 to 176 | II | 125 |
| Cc1cc(F)c(Cl)cc1NC[C@@H]1[C@@H](c2ccc(S(N)(=O)=O)cc2)C1(C)C [Example 37, ±trans 4-[3-{[(3-chloro-4-fluoro-2-methylphenyl)amino]methyl}-2,2-dimethylcyclopropyl]benzenesulfonamide] | 164 to 166 | II | – |
| CCc1ccc(F)cc1NC[C@H]1[C@H](c2ccc(S(N)(=O)=O)cc2)C1(C)C [Example 39, ±trans 4-[3-{[(2-ethyl-5-fluorophenyl)amino]methyl}-2,2-dimethylcyclopropyl]benzenesulfonamide] | – | II | – |
| CC1(C)[C@@H](CNc2cc(OC(F)(F)F)ccc2F)[C@@H]1c1ccc(S(N)(=O)=O)cc1 [Example 40, ±trans 4-[3-({[2-fluoro-5-(trifluoromethoxy)phenyl]amino}methyl)-2,2-dimethylcyclopropyl]benzenesulfonamide] | – | II | 309 |
| CC1(C)[C@@H](CNc2cc(F)ccc2OC(F)(F)F)[C@@H]1c1ccc(S(N)(=O)=O)cc1 [Example 41, ±trans 4-[3-({[5-fluoro-2-(trifluoromethoxy)phenyl]amino}methyl)-2,2-dimethylcyclopropyl]benzenesulfonamide] | – | I | – |
| COc1ncccc1NC[C@@H]1[C@@H](c2ccc(S(N)(=O)=O)cc2)C1(C)C [Example 42, ±trans 4-(3-{[(2-methoxypyridin-3-yl)amino]methyl}-2,2-dimethylcyclopropyl)benzenesulfonamide] | 98 to 100 | II | – |
| COc1ccc(Cl)cc1NC[C@@H]1[C@@H](c2ccc(-c3ccccc3O)cc2)C1(C)C [Example 43, ±trans 4′-[3-{[(5-chloro-2-methoxyphenyl)amino]methyl}-2,2-dimethylcyclopropyl]biphenyl-2-ol] | – | I | 100 |
| CCOc1ccccc1NC[C@@H]1[C@@H](c2ccc(S(N)(=O)=O)cc2)C1(C)C [Example 44, ±trans 4-[3-{[(2-ethoxyphenyl)amino]methyl}-2,2-dimethylcyclopropyl]benzenesulfonamide] | – | I | – |
| Cc1cccnc1NC[C@@H]1[C@@H](c2ccc(S(N)(=O)=O)cc2)C12CCCC2 [Example 49, ±trans 4-[2-{[(3-methylpyridin-2-yl)amino]methyl}spiro[2.4]hept-1-yl]benzenesulfonamide] | 82 to 84 | II | – |
| COc1ccc(Cl)cc1NC[C@@H]1[C@@H](c2ccc(S(=O)(=O)NO)cc2)C1(C)C [Example 55, ±trans 4-[3-{[(5-chloro-2-methoxyphenyl)amino]methyl}-2,2-dimethylcyclopropyl]-N-hydroxybenzenesulfonamide] | – | I | 724 |
| COc1ccc(Cl)cc1NC[C@@H]1[C@@H](c2ccc(S(=O)(=O)NN)cc2)C1(C)C [Example 56, ±trans 4-[3-{[(5-chloro-2-methoxyphenyl)amino]methyl}-2,2-dimethylcyclopropyl]benzenesulfonohydrazide] | – | I | 131 |

Further lines, with some results ahead:

| melting point [°C] | SMILES | Type I or Type II [1] | activation at 3 µM [1] [%] |
| --- | --- | --- | --- |
| 60 to 62 | Cc1ccc(Cl)cc1NC[C@@H]1[C@@H](c2ccc(S(N)(=O)=O)cc2)C1(C)C [Example 22, ±trans 4-[3-{[(5-chloro-2-methylphenyl)amino]methyl}-2,2-dimethylcyclopropyl]benzenesulfonamide] | II | – |
| 164 to 166 | COc1ccc(F)cc1NC[C@@H]1[C@@H](c2ccc(S(N)(=O)=O)cc2)C1(C)C [Example 23, ±trans 4-[3-{[(5-fluoro-2-methoxyphenyl)amino]methyl}-2,2-dimethylcyclopropyl]benzenesulfonamide] | II | – |
| 120 to 122 | CC1(C)[C@H](CNc2cccc(Cl)c2)[C@H]1c1ccc(S(N)(=O)=O)cc1 [Example 24, ±trans 4-[3-{[(3-chlorophenyl)amino]methyl}-2,2-dimethylcyclopropyl]benzenesulfonamide] | II | 901 |
| 122 to 124 | CCOc1ccc(Cl)cc1NC[C@@H]1[C@@H](c2ccc(S(N)(=O)=O)cc2)C1(C)C [Example 27, ±trans 4-[3-{[(5-chloro-2-ethoxyphenyl)amino]methyl}-2,2-dimethylcyclopropyl]benzenesulfonamide] | I | – |
| 68 to 70 | COc1ccc(C(F)(F)F)cc1NC[C@@H]1[C@@H](c2ccc(S(N)(=O)=O)cc2)C1(C)C [Example 28, ±trans 4-[3-({[2-methoxy-5-(trifluoromethyl)phenyl]amino}methyl)-2,2-dimethylcyclopropyl]benzenesulfonamide] | II | – |
| 124 to 126 | CC1(C)[C@H](CNc2cc(Cl)ccc2C(F)(F)F)[C@H]1c1ccc(S(N)(=O)=O)cc1 [Example 45, ±trans 4-[3-({[5-chloro-2-(trifluoromethyl)phenyl]amino}methyl)-2,2-dimethylcyclopropyl]benzenesulfonamide] | I | – |
| 115 to 118 | NS(=O)(=O)c1ccc([C@H]2C[C@@H]2CNc2cc(F)ccc2OC(F)(F)F)cc1 [Example 52, 4-[(1S,2S)-2-({[5-fluoro-2-(trifluoromethoxy)phenyl]amino}methyl)cyclopropyl]benzenesulfonamide] | II | – |
| 126 to 128 | COc1ccc(Cl)cc1NC[C@H]1C[C@@H]1Cc1ccc(S(N)(=O)=O)cc1 [Example 54, ±trans 4-{[-2-{[(5-chloro-2-methoxyphenyl)amino]methyl}cyclopropyl]methyl}benzenesulfonamide] | I | 574 |
